Laboratory results published in patent publication US20090149397A1, “TREATMENT OF CANCER WITH COMBINATIONS OF TOPOISOMERASE INHIBITORS AND PARP INHIBITORS” (priority 2007, published 2009).

Tests used:
[1] = system: human small cell lung cancer SW-2 cells; test: Subcutaneous xenograft model of SCLC, BA plus topotecan; format: in vivo, SCID mice; conditions: SW-2 xenograft; for tumor growth delay: topotecan i.p. 0.5, 1 or 2 mg/kg, BA 25 mg/kg/week continuous infusion, BA value in 3 out of 6 animals
Description: The anti-tumor effect of a combination of BA and topotecan, one of the approved drugs for the treatment of small cell lung cancer (SCLC) in humans, is evaluated in an established subcutaneous xenograft model of SCLC. SCID mice (24 animals) are inoculated with human small cell lung cancer SW-2 cells (8×10^6 cells/animal) injected subcutaneously into the right flank of the mice. When the tumors reach about 80 mm^3 in size, the mice are randomly divided into four groups (6 animals per group). The first group of mice is treated with topotecan administered i.p. […] Alzet model osmotic pumps are implanted on days 1, 15, and 29. The pumps are pre-warmed for ˜1 hour at 37° C., and then implanted subcutaneously (s.c.) in the left flanks of isofluoraneanesthetized mice. The third group of mice receives a combination of topotecan and BA, using the same doses and schedules as in groups 1 and 2. A control group of animals receives phosphate-buffered saline (PBS) using the same schedule as the animals in group 2. Tumor growth is monitored by measuring tumor size twice per week. Tumor size is calculated using the formula: length×width×height×(½).

[2] = system: human tumor cells including colon, prostate, cervix, lung, melanoma, lymphoma, and leukemia; test: In vitro proliferation of human tumor cells; format: cell-based
[3] = system: human colon, lung, and cervical carcinoma xenograft; test: Human colon, lung and cervical carcinoma xenograft models, BA administration; format: in vivo, nude and SCID mice

Compound | tumor growth delay [1] | inhibition of proliferation of human tumor cells [2] | survival rate of animals ([3]; drug given daily or twice weekly) | tumor growth ([3]; once-daily or twice-weekly administration of BA) | complete tumor regression, number of animals ([1]; out of 6 treated animals per group)
CC[C@@]1(O)C(=O)OCc2c1cc1n(c2=O)Cc2cc3c(CN(C)C)c(O)ccc3nc2-1 [topotecan, reference compound] | 12 days | – | – | – | –
NC(=O)c1ccc(I)c([N+](=O)[O-])c1 [BA, 4-iodo-3-nitrobenzamide] | 34 days | inhibits the proliferation | positively affects the survival rate | inhibits tumor growth | 3 animals
